This is an account of results in patent EP2088149A1 (priority 2006, dated 2008).

By LD50 is commonly meant the dose expected to kill half of the subjects tested.

Data set [1] is described as follows: Acute toxicity (LD50, Litchfield and Wilcoxon), intraperitoneal, 14 days follow-up. Conditions: mouse, in vivo, ip; male white outbred mice, intraperitoneally, follow-up 14 days. As to the method: Acute toxicity of the substances was determined on males of white outbred mice weighing 22 to 26 grams. The substances were administered intraperitoneally as a solution or a suspension in 1% starch solution. Follow-up period was 14 days.

Data set [2] concerns AMPA receptors. The data set can be described thus: Patch-clamp potentiation of kainate-induced trans-membrane currents in freshly isolated cerebellar Purkinje's neurons. The data set is classed as cell-based, rat. Conditions: for Potentiation of cainate-induced currents (%) / Potentiation of cainate-induced currents (%): blockade: rat cerebellar Purkinje's neurons; for Potentiation of cainate-induced currents (%): blockade: 10 µM, values are printed as blockade, without minus sign; for Washing returned the amplitude of responses to the control value: washing time after application of the compound. The method, then:
The inventors used determining the potentiating effect of novel compounds on kainate-induced trans-membrane currents in cerebellar Purkinje's neurons of rats for a directed search for compounds capable of potentiating responses of AMPA receptors (and thereby, to cause improvement of memory and cognitive functions).
Experiments on assessing the effect of substances on AMPA receptors were carried out using the patch-clamp method on freshly isolated Purkinje's neurons isolated from cerebellum of rats (aged 12 to 15 days). A modified method was used for isolation. 400 to 600 µm thick cerebellar slices were placed into a thermostatic 10 ml chamber. A solution for isolation had the following composition (in mM): NaCl 150.0, KCl 5.0; CaCl2 2.0, MgSO4×7H2O 2.0, HEPES 10.0, glucose 15.0, pH 7.42. The slices were incubated in this solution for 60 minutes, and thereafter, the solution was replaced by a similar solution comprising pronase (2 mg/ml) and collagenase (1 mg/ml) and incubated for 70 minutes. After washing with the original solution for 20 minutes, the slices were placed into a Petri plate and separated by a mechanic method using a Pasteur pipette. The solutions were continuously blown-through with 100% O2 at temperature 34°C. Purkinje's neurons were placed into a 0.6 ml working chamber. A process solution had the following composition (in mM): NaCl 150.0, KCl 5.0; CaCl2 2.6, MgSO4×7H2O 2.0, HEPES 10.0, glucose 15.0, pH 7.36.
Trans-membrane currents were induced by activation of AMPA receptors by applying agonist solutions of these receptors, i.e. cainic acid (CA) using a fast superfusion method. Cainic acid is an agonist of AMPA receptors and it is used for studying properties of AMPA receptors, since AMPA as such causes a too strong desensitization of the receptors, and it is not used in such experiments. Currents were recorded using borosilicate micro electrodes (resistance 1.5 to […]) filled with a following composition (in mM): KCl 100.0; EGTA 11.0, CaCl2 1.0, MgCl2 1.0, HEPES 10.0, ATP 5.0, pH 7.2.
The instrument EPC-9 (HEKA, Germany) was used for recoding. Currents were recorded on the PC Pentium-4 hard disc using the Pulse software, also purchased from the HEKA company. Results were processed using the Pulsefit software (HEKA).
Applying KK induced trans-membrane inward currents in Purkinje's neurons. Addition of the compounds of formula I to perfusion solution induced increase in amplitude of the currents. This increase was dependent on a compound, on concentration thereof, on time elapsed following commencement of a compound application.

[3] abbreviates: 0.1 µM, negative values = blockade of the currents.
Setting [4] is: 1 µM, negative values = blockade of the currents.

`Cc1nc2ccc(C(=O)N3CC4(C)CN(C(=O)c5ccc6nc(C)c(C)nc6c5)CC(C)(C3)C4=O)cc2nc1C` [Compound 3, 3,7-bis[(2,3-dimethylquinoxalin-6-yl)carbonyl]-1,5-dimethyl-3,7-diazabicyclo[3.3.1]nonan-9-one] returned an LD50 at 14 days in data set [1] of 90 mg/kg. In addition, the “Potentiation of cainate-induced currents (%)” value was 0.0001 µM - no potentiation in data set [2] (0.0001 µM); 0.001 µM - potentiation by 10 to 15% in data set [2] (0.001 µM); 0.01 µM - potentiation by 20 to 30%, in data set [2] (0.01 µM); 0.1 µM - blockade by -20 to -50% in data set [2] (setting [3]); 1 µM - no potentiation in data set [2] (setting [4]). In addition, the “Potentiation of cainate-induced currents (%): blockade” value in data set [2] is recorded as 10 µM - blockade by 20 to 50%.

As for `CC12CN(C(=O)c3ccc4c(c3)OCCO4)CC(C)(CN(C(=O)c3ccc4c(c3)OCCO4)C1)C2=O` [Compound 1, 3,7-bis(2,3-dihydro-1,4-benzodioxin-6-ylcarbonyl)-1,5-dimethyl-3,7-diazabicyclo[3.3.1]nonan-9-one], in data set [1], the LD50 at 14 days worked out at 350 mg/kg. The “Potentiation of cainate-induced currents (%)” value is on record as 0.0001 µM - no potentiation in data set [2] (0.0001 µM); 40 to 50% in data set [2] (0.001 µM); 0.001 µM - potentiation by 40 to 50%, in data set [2] (0.001 µM, listed as 1 (XXXI)); 80% in data set [2] (0.01 µM); 0.01 µM - potentiation by 80% in data set [2] (0.01 µM, listed as 1 (XXXI)); 0% in data set [2] (setting [3]). Also, the “Potentiation of cainate-induced currents (%)” value in data set [2] (0.1 µM, negative values = blockade of the currents, listed as 1 (XXXI)) is 0.1 µM - 0%,; in data set [2] (setting [4]), -20 to -40%; in data set [2] (1 µM, negative values = blockade of the currents, listed as 1 (XXXI)), 1 µM - blockade by -20 to -40%. Moreover, the “Washing returned the amplitude of responses to the control value” in data set [2] was 3 to 5 min.

Consider `CC12CC3CC(C)(C1)CC(N)(C3)C2` [Memantine, reference compound], for which, in data set [1], the LD50 at 14 days turned out to be 1000 mg/kg. Also, in data set [2] (30 µM), the “Potentiation of cainate-induced currents (%)” value is recorded as “potentiation by 0 to 15% at 30 µM”.

In the case of `CC12CN(C(=O)c3ccc4c(c3)OCO4)CC(C)(CN(C(=O)c3ccc4c(c3)OCO4)C1)C2=O` [Compound 2, 3,7-bis(1,3-benzodioxol-5-ylcarbonyl)-1,5-dimethyl-3,7-diazabicyclo[3.3.1]nonan-9-one], the LD50 at 14 days in data set [1] turned out to be 140 mg/kg. The “Potentiation of cainate-induced currents (%)” value is recorded as 10% in data set [2] (0.00001 µM); 0.00001 µM -potentiation by 20 to 40% in data set [2] (0.00001 µM, listed as 2 (XXX2)); 50-90% in data set [2] (0.0001 µM); 0.0001 µM - potentiation by 50 to 90%, in data set [2] (0.0001 µM, listed as 2 (XXX2)); 60-140% in data set [2] (0.001 µM); 0.001 µM - potentiation by 60 to 140% in data set [2] (0.001 µM, listed as 2 (XXX2)). In addition, the “Potentiation of cainate-induced currents (%)” value is listed as 0-20% in data set [2] (0.01 µM); 0.01 µM - potentiation by 0 to 20%, in data set [2] (0.01 µM, listed as 2 (XXX2)); 0.1 µM - blockade by -20 to -40% in data set [2] (0.1 µM, negative values = blockade of the currents, listed as 2 (XXX2)). In data set [2], the “Washing returned the amplitude of responses to the control value” lay in the range of 4 to 6 min.

Molecule `COc1ccc(C(=O)N2CC3(C)CN(C(=O)c4ccc(OC)c(Cn5cccn5)c4)CC(C)(C2)C3=O)cc1Cn1cccn1` [Compound 4] came in with an LD50 at 14 days in data set [1] of 900 mg/kg. Further, the “Potentiation of cainate-induced currents (%)” value in data set [2] (0.001 µM) is 0.001 µM - no effect; in data set [2] (0.01 µM), 0.01 µM - potentiation by 10 to 30%,; in data set [2] (setting [3]), 0.1 µM - blockade by -20 to -40%; in data set [2] (setting [4]), 1 µM - 0%. The “Potentiation of cainate-induced currents (%): blockade” value in data set [2] is recorded as 10 µpM - blockade by 15 to 35%.
